# Data as given in ChEMBL document CHEMBL4699652, “Proline Hinged Amphipathic α-Helical Peptide Sensitizes Gram-Negative Bacteria to Various Gram-Positive Antibiotics” (J Med Chem, 2020).
# Active and inactive are the calls of the source. No cut-off for these calls is given here.
# Legend:
# [1] = test system: Staphylococcus aureus; test: Antimicrobial activity against Staphylococcus aureus ATCC 29213 assessed as inhibition of bacterial growth incubated for 18 hrs by CLSI based method; type: functional
# [2] = test system: Escherichia coli; test: Sensitization of rifampicin-induced antimicrobial activity against Cst-resistant Escherichia coli isolates assessed as inhibition of bacterial growth at 8 ug/ml incubated for 18 hrs by CLSI based method; type: functional, organism-based; details: dose 8.0 µg/ml
# [3] = Drug uptake in human HeLa cells at 1 uM incubated for 4 hrs using TAMRA-labeled compound; type: ADME, cell-based
# [4] = test system: Escherichia coli; test: Induction of cell lysis in Escherichia coli at 5 uM by transmission electron microscopy; type: functional, organism-based
# [5] = test system: Cell membrane; test: Induction of outer membrane permeability in Escherichia coli assessed as periplasmic-beta-lactamase release at 5 uM using CENTA; type: subcellular
# [6] = test system: Cell membrane; test: Induction of inner membrane permeability in Escherichia coli assessed as cytoplasmic beta-galactosidase release at 5 uM using ONPG
# [7] = test system: Cell membrane; test: Induction of outer membrane re-arragenemnts in Escherichia coli D21f2 incubated for 4 mins by NPN uptake assay; type: subcellular
# [8] = test system: Escherichia coli; test: Sensitization of rifampicin-induced induction of cell killing in Escherichia coli assessed as time needed for bacterial destruction at 8 ug/ml; type: functional; details: dose 8 µg/ml
# [9] = test system: Escherichia coli; test: Sensitization of linezolid-induced induction of cell killing in Escherichia coli assessed as time needed for bacterial destruction at 8 ug/ml; type: functional; details: dose 8 µg/ml
# [10] = test system: Cell membrane; test: Induction of membrane permeability in Escherichia coli assessed as increase in fine surface roughness at 25 uM by atomic force microscopy; type: subcellular
# [11] = test system: Escherichia coli; test: Binding affinity to cell membrane using POPC/cholesterol (8/2) by SPR assay
# [12] = test system: Escherichia coli; test: Sensitization of rifampicin-induced antimicrobial activity against Escherichia coli ATCC 25922 infected in ICR CD1 mouse model of sepsis protection model assessed as increase in mouse survival at 30 mg/kg, ip q1h x 8 hrs for 7 days co-treated with 5 mg/kg, sc q4h x 8 hrs rifampicin; type: functional, organism-based; details: time 7.0 day
# [13] = test system: Escherichia coli; test: Sensitization of linezolid-induced antimicrobial activity against Escherichia coli ATCC 25922 infected in ICR CD1 mouse model of sepsis protection model assessed as increase in mouse survival at 30 mg/kg, ip q1h x 8 hrs for 7 days co-treated with 25 mg/kg, sc q4h x 8 hrs linezolid; type: functional, organism-based; details: time 7.0 day
# [14] = test system: Acinetobacter baumannii; test: Sensitization of clarithromycin-induced antimicrobial activity against Acinetobacter baumannii OXA infected in mouse skin infection model assessed as reduction in skin ulcer at 7.5 mg/kg, sc TID for 5 days co-treated with 20 ug/kg, sc clarithromycin; type: functional, organism-based; details: time 5.0 day
substance,measurement,setting,value
Ac-KLLKLLKKPLKLLK-NH2,MIC,[1],> 80 µM
same,Activity,[2],Active
same,Drug uptake,[3],Not Active
same,Activity,[4],inactive
same,Activity,[5],inactive
same,Activity,[6],inactive
same,Activity,[7],inactive
same,Time,[8],8 h
same,Time,[9],8 h
same,Activity,[10],Active
same,Activity,[11],inactive
same,Activity,[12],Active
same,Activity,[13],Active
same,Activity,[14],Active
